Source: the NIST ThermoML archive (doi:10.1007/s10765-006-0110-x)
± gives the expanded uncertainty stated by the source.

Settings: Liquid, Pulse-echo method

COCCOC [1,2-dimethoxyethane]
speed of sound [m/s]
Settings | 293.15 K | 303.15 K | 313.15 K | 323.15 K | 333.15 K | 343.15 K | 353.15 K
100 kPa | 1188.5 ± 4.8 | 1144.8 ± 4.6 | 1101.9 ± 4.4 | 1059.4 ± 4.3 | 1016.5 ± 4.1 | 974.9 ± 3.9 | 932.8 ± 3.8
10000 kPa | 1242 ± 5 | 1201.1 ± 4.8 | 1161.1 ± 4.7 | 1122.4 ± 4.5 | 1083.1 ± 4.4 | 1044.7 ± 4.2 | 1005.8 ± 4.1
20000 kPa | 1292.4 ± 5.2 | 1252.2 ± 5 | 1215.2 ± 4.9 | 1178.7 ± 4.8 | 1142.7 ± 4.6 | 1107 ± 4.5 | 1070 ± 4.3
30000 kPa | 1336.4 ± 5.4 | 1299.6 ± 5.2 | 1263.9 ± 5.1 | 1229.3 ± 5 | 1195.2 ± 4.8 | 1161.4 ± 4.7 | 1127.3 ± 4.5
40000 kPa | 1378.8 ± 5.6 | 1343.2 ± 5.4 | 1309.2 ± 5.3 | 1275.9 ± 5.1 | 1243.6 ± 5 | 1211.6 ± 4.9 | 1178.9 ± 4.8
50000 kPa | 1418.2 ± 5.7 | 1384.1 ± 5.6 | 1350.7 ± 5.4 | 1319.6 ± 5.3 | 1288.4 ± 5.2 | 1257.6 ± 5.1 | 1226.3 ± 4.9
60000 kPa | 1455.6 ± 5.9 | 1422.5 ± 5.7 | 1390.5 ± 5.6 | 1361.5 ± 5.5 | 1330.1 ± 5.4 | 1300.5 ± 5.2 | 1270.4 ± 5.1
70000 kPa | 1490.4 ± 6 | 1458 ± 5.9 | 1428.3 ± 5.8 | 1398.6 ± 5.6 | 1369.3 ± 5.5 | 1340.5 ± 5.4 | 1311.3 ± 5.3
80000 kPa | 1523.9 ± 6.1 | 1492.6 ± 6 | 1463.3 ± 5.9 | 1434.7 ± 5.8 | 1406.4 ± 5.7 | 1378.6 ± 5.6 | 1350.2 ± 5.4
90000 kPa | 1555.7 ± 6.3 | 1525.7 ± 6.1 | 1497 ± 6 | 1468.9 ± 5.9 | 1441.3 ± 5.8 | 1414.5 ± 5.7 | 1387 ± 5.6
100000 kPa | 1586.1 ± 6.4 | 1557.2 ± 6.3 | 1528.8 ± 6.2 | 1501.5 ± 6 | 1474.8 ± 5.9 | 1448.7 ± 5.8 | 1421.7 ± 5.7

COCCOCCOC [2,5,8-trioxanonane]
speed of sound [m/s]
Settings | 293.15 K | 303.15 K | 313.15 K | 323.15 K | 333.15 K | 343.15 K | 353.15 K
100 kPa | 1298.9 ± 5.3 | 1259.3 ± 5.1 | 1219.9 ± 4.9 | 1180.9 ± 4.8 | 1142.4 ± 4.6 | 1104.2 ± 4.5 | 1066.6 ± 4.3
10000 kPa | 1344.9 ± 5.4 | 1306.7 ± 5.3 | 1269.5 ± 5.1 | 1232.5 ± 5 | 1196.4 ± 4.8 | 1160.8 ± 4.7 | 1125.7 ± 4.6
20000 kPa | 1386.5 ± 5.6 | 1350.6 ± 5.5 | 1315.4 ± 5.3 | 1280.2 ± 5.2 | 1246 ± 5 | 1212 ± 4.9 | 1179.3 ± 4.8
30000 kPa | 1426.6 ± 5.8 | 1392 ± 5.6 | 1357.6 ± 5.5 | 1324.4 ± 5.4 | 1291.4 ± 5.2 | 1259.5 ± 5.1 | 1228.1 ± 5
40000 kPa | 1463.9 ± 5.9 | 1430.4 ± 5.8 | 1397.8 ± 5.7 | 1365.5 ± 5.5 | 1333.7 ± 5.4 | 1303.1 ± 5.3 | 1273.4 ± 5.2
50000 kPa | 1499.2 ± 6.1 | 1466.9 ± 5.9 | 1435.3 ± 5.8 | 1404 ± 5.7 | 1373.6 ± 5.6 | 1343.9 ± 5.4 | 1314.9 ± 5.3
60000 kPa | 1532.5 ± 6.2 | 1501.5 ± 6.1 | 1470.5 ± 5.9 | 1440.6 ± 5.8 | 1410.9 ± 5.7 | 1382.1 ± 5.6 | 1354.4 ± 5.5
70000 kPa | 1565.1 ± 6.3 | 1534.3 ± 6.2 | 1504.4 ± 6.1 | 1475.2 ± 6 | 1446.2 ± 5.8 | 1418.6 ± 5.7 | 1391.3 ± 5.6
80000 kPa | 1595.5 ± 6.4 | 1565.8 ± 6.3 | 1536.7 ± 6.2 | 1508.2 ± 6.1 | 1480.1 ± 6 | 1452.9 ± 5.9 | 1426.7 ± 5.8
90000 kPa | 1624.9 ± 6.6 | 1595.9 ± 6.4 | 1567.6 ± 6.3 | 1539.8 ± 6.2 | 1512.3 ± 6.1 | 1485.9 ± 6 | 1460.4 ± 5.9
100000 kPa | 1653.4 ± 6.7 | 1625.1 ± 6.6 | 1597 ± 6.4 | 1569.9 ± 6.3 | 1543.1 ± 6.2 | 1517.4 ± 6.1 | 1492.3 ± 6
